Results as given in patent publication US20210128511A1, “PRODRUG COMPOSITIONS AND METHODS OF TREATMENT” (AQUESTIVE THERAPEUTICS, INC., priority 2019, published 2021).
“Also recorded” adds a separate entry of the source.

Experiments:
[1] = In vitro human whole blood hydrolysis assay; settings: for hydrolysis in human whole blood compared to L-Dipivefrin: 1 μM, 37° C., up to 6 hours, epinephrine in plasma by LC-MS/MS
Method: Fresh healthy human whole blood was collected in blood collection tubes and preincubated for 30 min at 37° C.
Using human whole blood in vitro, epinephrine levels in plasma was measured. Whole blood was collected from 2 donors. Compounds were incubated at 1 μM conc with Stabilizer. Plasma was separated after stopping the enzyme reaction at different timepoints. Samples were extracted and analyzed by LC-MS method.

[2] = Intramuscular study in minipig for prodrugs, epinephrine pharmacokinetic profile; type: in vivo, male Yucatan miniature swine; settings: epinephrine in plasma, IM 2 mg/animal
Method: (§1) Yucatan minipigs (n=4 males per group) were weighed and weights were recorded. The morning of the study, the vascular access port (VAP) of each animal was checked for proper functioning. Minipigs with viable VAP were removed from the home cage and placed in a holding sling. The animals were fasted overnight prior to dose administration and for the duration of PK blood collections.
All the formulations were prepared fresh on the day of dosing and maintained on wet ice until dosing. The dose was injected in the rear hind limb. Prior to administering, the plunger of the syringe was aspirated and observed for any blood that may flow into the syringe. If no blood was observed, it was verified that the needle was in proper placement, and the test articles were administered.
At each specified time-point, 6 mL of whole blood was collected into blood collection tubes containing K2EDTA as the anticoagulant and sodium metabisulfite as stabilizer. Sodium metabisulfite was at a concentration of 8.9 mM, pH 3 (60 μL/6 mL of whole blood of the 890 mM stock solution). SigmaFast (600 μL of SigmaFast 1× solution to 6 mL of whole blood) was added immediately to the tubes as the enzyme arresting agent. The tubes were inverted several times for mixing upon addition of SigmaFast solution. […] The resulting plasma was obtained and stored at approximately […]. The analysis of epinephrine was done using LC-MS/MS method.
as §1, with “Applicants sought to identify epinephrine prodrugs with higher permeability and slower hydrolysis after intramuscular (IM) administrations. […] Yucatan” for “Yucatan”, “minipigs” for “minipigs (n=4 males per group)”, “in the” for “weights were recorded. The”
The dose was injected in the rear hind limb. […] At each specified time-point, 6 mL of whole blood was collected into blood collection tubes containing anticoagulant and stabilizer. Protease inhibitor cocktail was added and the tubes were inverted several times for mixing. All blood samples were centrifuged and the resulting plasma was analyzed for epinephrine using LC-MS/MS method.

[3] = Hydrolysis testing after IV exposure, PK parameters; type: in vivo
Method: Hydrolysis was analyzed after intravenous (IV) administrations. All Groups were tested at the following time intervals: 0 (predose), 2, 5, 10, 12, 15, 17, 20, 25, 30, 40, 60, 90 and 120 minutes and 3 hr, 4 hr, 6 hr and 8 hr post dose.

[4] = Ex vivo permeation study, Franz diffusion cell; type: in vitro ADME, porcine; settings: for permeation: ex vivo, compared to L-Dipivefrin
Method: The Franz diffusion cell apparatus consists of two chambers separated by a membrane. The permeation studies were conducted using porcine buccal mucosa obtained from a slaughterhouse. The tissues were dermatomed to typically […] and mounted in vertical Franz diffusion cells maintained at 37° C. The tissue membrane separates the donor compartment containing the drug mixed with the permeation enhancer solution and the receptor compartment containing the collection media whish was selected to provide sink conditions throughout the experiment. The permeation rate was observed over several hours by analysing drug concentration in the receptor medium.
In one example, a permeation procedure is conducted as follows. A temperature bath is set to 37° C., and receiver media is placed in a water bath to adjust the temperature and begin degassing. A Franz diffusion cell is obtained and prepared. The Franz diffusion cell includes a donor compound, a donor chamber, a membrane, sampling port, receptor chamber, stir bar, and a heater/circulator. A stir bar is inserted into a Franz diffusion cell. Tissue is placed over the Franz diffusion cell, and it is ensured that the tissue covers the entire area with an overlap onto a glass joint. The top of a diffusion cell is placed over the tissue, and the top of the cell is clamped to the bottom. About 5 mL of receptor media is loaded into the receiver area to ensure that no air bubbles are trapped in the received portion of the cell. This ensures that all 5 mL can fit into the receiver area. Stirring is begun, and temperature is allowed to equilibrate for about 20 minutes. Meanwhile, High Performance Liquid Chromatography (HPLC) vials are labelled by cell number and time point. One must then check again for air bubbles as the solution will degas during heating.
If testing films, one can perform the following next steps: (1) weigh films, punch to match diffusion area (or smaller), reweigh, record pre- and post-punching weight; (2) wet a donor area with approximately 100 μL of phosphate buffer; (3) place film on a donor surface, top with 400 μL of phosphate buffer, and start timers.
For solution studies, one can perform the following steps: (1) using a micropipette, dispense 500 μL of the solution into each donor cell, start the timers; (2) sample 200 μL at the following time points (time=0 min, 20 min, 40 min, 60 min, 120 min, 180 min, 240 min, 300 min, 360 min), and place in labelled HPLC vials, ensure no air is trapped in the bottom of the vial by tapping the closed vials; (3) replace each sample time with 200 uL of receptor media (to maintain 5 mL); (4) When all time points completed, disassemble the cells and dispose of all materials properly.
1. Tissue is freshly excised and shipped (e.g. overnight) at 4° C. 2. The tissue is processed and frozen at −20° C. for up to three weeks prior to use. 3. The tissue is dermatomed to precise thickness. 4. Approximately 5 mL of receiving media is added to the receiving compartment. The media is selected to ensure sink conditions. 5. The tissue is placed in a Franz diffusion cell, which includes a donor compound, a donor chamber, a membrane, sampling port, receptor chamber, stir bar, and a heater/circulator. 6. Approximately 0.5 mL of donor solution is applied or 8 mm circular film and wetted with 500 μL PBS buffer. 7. Samples are taken from the receiving chamber at given intervals and replaced with fresh media.

[5] = Effect of sodium fluoride on drug absorption; settings: relative to compositions that did not include NaF
Excerpt: Referring to FIG. 17, the graph indicates the effect of sodium fluoride on drug absorption.

Row | SMILES | hydrolysis in human whole blood compared to L-Dipivefrin [1] | Cmax and AUC compared among prodrugs [2] | permeation [4] | further results
1 | CNCC(O)c1ccc(OC(=O)N(C)C)c(OC(=O)N(C)C)c1 (centres unmarked) [AQEP-03] | minimal hydrolysis; also recorded: did not show faster hydrolysis | AQEP-04>AQEP-02>AQEP-03>AQEP-01 |  | 
2 | CCCC(=O)Oc1ccc(C(O)CNC)cc1OC(=O)CCC (centres unmarked) [AQEP-05] |  |  | effective permeation | conversion to epinephrine after IV administration compared to L-Dipivefrin [3]: Rapid conversion
3 | CC(C)OC(=O)N(C)CC(O)c1ccc(O)c(O)c1 (centres unmarked) [AQEP-06] | did not show any hydrolysis; also recorded: did not show faster hydrolysis |  |  | 
4 | CCC(C)(C)C(=O)Oc1ccc(C(O)CNC)cc1OC(=O)C(C)(C)CC (centres unmarked) [AQEP-02] |  | AQEP-04>AQEP-02>AQEP-03>AQEP-01 |  | 
5 | CNCC(O)c1ccc(OC(=O)c2ccccc2)c(OC(=O)c2ccccc2)c1 (centres unmarked) [AQEP-04] | faster hydrolysis | higher Cmax and AUC compared to Prodrugs 01, 02 and 03 | did not permeate as well; also recorded: did not permeate higher than L-Dipivefrin | plasma levels of epinephrine converted from prodrug, compared to L-Dipivefrin ([1]; 1 μM in human whole blood in vitro): Rapid conversion and higher levels of epinephrine; Cmax and AUC compared to L-Dipivefrin [2]: less
6 | CN(CC(O)c1ccc(O)c(O)c1)C(=O)OC(C)(C)C (centres unmarked) [AQEP-07] | did not show any hydrolysis; also recorded: did not show faster hydrolysis |  |  | 
7 | CCOC(=O)Oc1ccc(C(O)CNC)cc1OC(=O)OCC (centres unmarked) [AQEP-12] | faster hydrolysis |  |  | 
8 | CCCCC(=O)Oc1ccc(C(O)CNC)cc1OC(=O)CCCC (centres unmarked) [AQEP-08] | faster hydrolysis |  | effective permeation | 
9 | CNCC(OC(=O)C(C)(C)C)c1ccc(OC(=O)C(C)(C)C)c(OC(=O)C(C)(C)C)c1 (centres unmarked) [AQEP-01] |  | AQEP-04>AQEP-02>AQEP-03>AQEP-01 |  | 
10 | CCC(=O)Oc1ccc(C(O)CNC)cc1OC(=O)CC (centres unmarked) [AQEP-10] |  |  | effective permeation | 
11 | CCCCCC(=O)Oc1ccc(C(O)CNC)cc1OC(=O)CCCCC (centres unmarked) [AQEP-11] | faster hydrolysis |  |  | permeation (flux vs. carbon chain length) ([4]; 5 carbon straight chain): permeation dropped
12 | CNCC(O)c1ccc(OC(=O)C(C)C)c(OC(=O)C(C)C)c1 (centres unmarked) [AQEP-09] | faster hydrolysis |  | effective permeation | ex vivo permeation of film formulations with varying polysaccharide content ([4]; formulations containing pullulan, compared to L-dipivefrin): Higher permeation; absorption with addition of NaF to the formulation [5]: increased the absorption
